The record followed here is publication PMC3545992, “Trisubstituted Pyrazolopyrimidines as Novel Angiogenesis Inhibitors” (PLoS ONE, 2013).

As a reminder, the inhibition is the percentage by which the read-out fell short of the control. In general, IC50 refers to the concentration that gives 50% inhibition. A high value points to weaker potency.

Data set [1] concerns HUVECs. The experiment in a line: Cell viability assay (CellTiter-Blue) in confluent HUVECs. The format is cell-based, human. The conditions noted are these: 30 µM, 16 h. The procedure: Figure 2 Cdk5 is expressed in HUVECs and HMEC-1 cells, and the compounds are not cytotoxic to endothelial cells at concentrations used in functional assays. A: Cdk5 protein expression in endothelial cells in comparison to human cortex. Cdk5 protein amount was analyzed by Western blot in samples of human cortex (HC), confluent HUVECs (HU) and HMEC-1 (HM). β-actin served as a loading control and for normalization of protein amount. Relative quantification (left panel) and one representative image (right panel) of three individual blots are shown. Note the much lower protein loading in the HC sample in the right panel. (n = 3, mean ± SEM, p>0.05, One Way ANOVA, Dunnett). B: Confluent HUVECs were treated for 16 h with 10 or 30 µM of the indicated compounds or left untreated as control. After addition of CellTiter-BlueTM Reagent, cells were incubated for 4 h and fluorescence was measured at 560 nm (n = 3, mean ± SEM, * p<0.05, One Way ANOVA, Dunnett).
HUVECs were seeded in 96-well plates. After reaching confluency, the cells were treated for 16 h with the indicated compounds or left untreated as control. After addition of CellTiter-Blue^TM Reagent (Promega Corporation, Madison, WI, USA), cells were incubated for additional 4 h and fluorescence was measured at 560 nm in a plate-reading photometer (SpectraFluor Plus; Tecan, Crailsheim, Germany).
Background: Resazurin is reduced to fluorescent resorufin, in cell work by metabolically active cells.

Data set [2] concerns HUVECs. The data set can be described thus: Chemotaxis assay in FCS gradient (µ-slides Chemotaxis). The conditions noted are these: for chemotaxis of endothelial cells (in words): 10 µM; for inhibition at 10 µM: Homo sapiens, HUVEC, read-out: inhibition of chemotaxis in accumulative distance. The format is cell-based, human. The procedure:
Figure 5 LGR 1404, 1406 and 1407 decrease chemotaxis of endothelial cells. Chemotaxis of HUVECs in the presence or absence of 10 µM of the indicated compounds was determined in µ-slides Chemotaxis. A: Quantitative evaluation of accumulated and euclidean distance, velocity and y-forward migration index (n = 3, mean ± SEM, * p<0.05, One Way ANOVA, Dunnett). B: Representative cell tracking plots of untreated and treated cells.
The effect of the LGR compounds on endothelial cell chemotaxis was determined using Collagen IV coated μ-slides Chemotaxis (ibidi, Martinsried, Germany). HUVECs (5×10^6 cells per ml) were seeded into the observation channel of the slides according to the manual of the manufacturer, and the cells were allowed to attach for 4 hours. Then, the chambers of the chemotaxis slide were completely filled with serum-free medium M 199; and growth medium containing 30% FCS was added to one chamber in order to generate an FCS-gradient from 0% to […]. 10 µM of the indicated compounds were added both to the M199 and to the 30% FCS. Chemotaxis was observed over 20 hours by live-cell imaging with a Zeiss LSM 510 META confocal microscope equipped with an incubator stage (EMBLem, Heidelberg, Germany). A time series was collected taking 1 picture every 10 minutes. For cell tracking and data analysis, the manual tracking plug-in (Fabrice Cordelieres) and the Chemotaxis and Migration Tool (Version 1.01, ibidi, Martinsried, Germany) for ImageJ were used. Euclidean distance (direct distance from the starting point to the end point) was used as an indicator of directionality of movement, accumulative distance (sum of all migrated distances from track to track) and velocity (mean velocity of every cell calculated as ratio between track to track distance and time) were used as a measure for total motility.

Data set [3] deals with HUVECs. The experiment in a line: Quantification of lamellipodia and Rac1 immunocytochemistry in migrating cells. The format is cell-based, human. The settings on record: 8 h migration; for reduction of formation of lamellipodia: 10 µM; for recruitment of Rac1 to lamellipodia (in words): immunofluorescence. On the procedure: A: Confluent layers of HUVECs were scratched and the cells were allowed to migrate for 8 h in the presence or absence of the respective concentration of the compounds, until clear lamellipodia formation was visible in the control. The actin cytoskeleton was then stained with rhodamin-phalloidine and fluorescence images (10x magnification) of the scratches were taken. Left panel: For quantitative evaluation of lamellipodia formation, cells with prominent lamellipodia and ruffles were counted in relation to the number of cells at the scratch front (n = 3, mean ± SEM, * p<0.05, One Way ANOVA, Dunnett). Right panel: Representative images of the scratch front (f-actin, 40x magnification). B: Cells treated like in A were fixed and stained for f-actin (red), cortactin (green) and Rac1 (white). Representative images out of three experiments are shown.
Confluent layers of HUVECs were scratched and stimulated in 8-well μ-slides as described above. The cells were allowed to migrate for 8 h in the presence or absence of the respective concentration of the compounds, until clear lamellipodia formation was visible in the control. The actin cytoskeleton was then stained with rhodamine-phalloidin (Life Technologies, Darmstadt, Germany) and fluorescence images of the scratches were taken in 10x magnification with the Zeiss LSM 510 META. For quantitative evaluation of lamellipodia formation, cells with prominent lamellipodia and ruffles were counted with ImageJ (Cell Counter plug-in by Kurt De Vos) in relation to the total number of cells at the scratch front. The ratio was calculated as number of lamellipodia-positive cells per 100 cells at scratch front. In the same setting immunofluorescence staining was performed. Fixed cells were permeabilized for 2 min with 0.1% Triton X-100 in PBS. Cells were washed and unspecific binding was blocked with 0.2% BSA in PBS for 15 min. Thereafter, cells were incubated with primary antibody (cortactin: rabbit polyclonal, 1∶100, Cell Signaling, and Rac1: mouse monoclonal, 1∶100, Upstate) in 0.2% BSA/PBS over night at 4°C. After three washing steps with PBS, the specimen were incubated with the corresponding AlexaFluor® -labeled secondary antibodies for 30 min at room temperature. Finally, the slides were again washed three times with PBS (5 min), embedded in FluorSave^TM Reagent mounting medium and covered with 8 mm ×8 mm glass cover slips.

The target of data set [4] is T1, Cdk1/CycB (Homo sapiens, UniProt P06493).
T1 construct: purchased ProQinase (Freiburg, Germany)
T1 sequence (P06493 whole entry): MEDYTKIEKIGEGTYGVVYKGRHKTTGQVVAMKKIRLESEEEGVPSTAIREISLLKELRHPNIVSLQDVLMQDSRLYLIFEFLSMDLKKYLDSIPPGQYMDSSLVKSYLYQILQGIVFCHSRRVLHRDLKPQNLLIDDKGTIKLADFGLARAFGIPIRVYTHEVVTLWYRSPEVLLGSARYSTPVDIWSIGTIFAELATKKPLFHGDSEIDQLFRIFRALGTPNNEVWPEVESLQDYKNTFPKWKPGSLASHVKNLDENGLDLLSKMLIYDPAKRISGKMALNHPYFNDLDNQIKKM
T1 sequence (P14635 whole entry partner): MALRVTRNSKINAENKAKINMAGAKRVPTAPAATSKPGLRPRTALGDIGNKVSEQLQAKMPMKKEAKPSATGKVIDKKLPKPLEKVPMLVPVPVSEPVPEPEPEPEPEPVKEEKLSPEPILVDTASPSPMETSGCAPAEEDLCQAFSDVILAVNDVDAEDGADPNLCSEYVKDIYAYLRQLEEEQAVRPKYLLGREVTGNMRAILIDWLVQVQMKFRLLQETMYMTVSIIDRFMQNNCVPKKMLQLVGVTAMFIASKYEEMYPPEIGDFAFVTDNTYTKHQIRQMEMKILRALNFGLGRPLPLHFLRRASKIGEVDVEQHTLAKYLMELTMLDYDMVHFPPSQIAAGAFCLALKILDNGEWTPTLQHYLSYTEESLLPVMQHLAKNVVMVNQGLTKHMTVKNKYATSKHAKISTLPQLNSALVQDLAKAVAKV
The experiment in a line: In vitro kinase profile (ProQinase). The format is biochemical. The procedure:
(§1) Therefore, it was of interest to see which kinases, especially which Cdks, are inhibited by those compounds. The kinase profiling was performed by ProQinase (Freiburg, Germany) for LGR 1406 and 1407. For LGR 1404 kinase profiling has recently been published previously. LGR 1406 and 1407 were tested for their IC50 in a panel of 24 kinases, including the Cdk1, Cdk2, Cdk4, Cdk5, Cdk6, Cdk7 and Cdk9. The other kinases tested were PTK6, EGFR, FAK, FGFR1 and FGFR2, NLK, PAK4, VEGFR1 and VEGFR2, MEK1, ROCK1, RAF1, ALK, RSK3, AURKA, and AMPKα1.

Data set [5] deals with T2, Cdk9/CycT (Homo sapiens, UniProt P50750).
T2 construct: purchased ProQinase (Freiburg, Germany)
T2 sequence (P50750 whole entry): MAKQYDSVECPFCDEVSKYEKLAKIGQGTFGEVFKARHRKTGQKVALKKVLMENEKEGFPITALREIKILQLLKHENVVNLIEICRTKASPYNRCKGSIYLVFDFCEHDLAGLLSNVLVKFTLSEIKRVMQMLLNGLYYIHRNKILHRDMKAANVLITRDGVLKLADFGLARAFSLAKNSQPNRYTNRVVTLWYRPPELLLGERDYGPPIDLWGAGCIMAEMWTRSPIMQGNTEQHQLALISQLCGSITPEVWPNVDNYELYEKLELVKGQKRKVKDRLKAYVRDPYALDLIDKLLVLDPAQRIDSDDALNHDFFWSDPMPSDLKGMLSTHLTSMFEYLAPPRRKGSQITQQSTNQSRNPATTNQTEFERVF
T2 sequence (O60563 whole entry partner): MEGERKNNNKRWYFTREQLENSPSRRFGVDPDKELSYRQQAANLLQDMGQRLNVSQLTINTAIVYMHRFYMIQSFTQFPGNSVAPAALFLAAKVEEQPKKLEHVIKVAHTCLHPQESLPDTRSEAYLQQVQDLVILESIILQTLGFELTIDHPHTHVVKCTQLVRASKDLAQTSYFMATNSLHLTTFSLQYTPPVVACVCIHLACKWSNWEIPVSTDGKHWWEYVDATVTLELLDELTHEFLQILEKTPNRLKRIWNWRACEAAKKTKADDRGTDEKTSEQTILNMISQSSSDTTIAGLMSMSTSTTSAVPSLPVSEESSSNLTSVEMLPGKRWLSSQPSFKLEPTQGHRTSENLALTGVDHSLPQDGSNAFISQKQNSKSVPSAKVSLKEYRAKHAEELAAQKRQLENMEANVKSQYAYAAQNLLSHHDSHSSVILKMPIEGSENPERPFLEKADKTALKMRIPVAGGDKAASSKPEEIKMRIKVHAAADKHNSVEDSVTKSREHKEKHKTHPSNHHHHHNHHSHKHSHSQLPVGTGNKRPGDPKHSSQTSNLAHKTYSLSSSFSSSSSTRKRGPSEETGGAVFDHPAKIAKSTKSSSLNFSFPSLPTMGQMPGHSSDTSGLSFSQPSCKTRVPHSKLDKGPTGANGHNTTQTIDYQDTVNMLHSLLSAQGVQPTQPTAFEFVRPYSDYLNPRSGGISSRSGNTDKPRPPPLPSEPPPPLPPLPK
The data set can be described thus: In vitro kinase profile (ProQinase). It counts as biochemical. The procedure: as §1

For `CC[C@H](CO)Nc1nc(NCc2ccccc2)c2n[nH]c(C(C)C)c2n1` [LGR 1404, 7-Benzylamino-5(R)-[(1-hydroxymethyl)propylamino]-3-isopropyl-1(2)H-pyrazolo[4,3-d]pyrimidine], in data set [1], the “cell viability in comparison to control” value is “weak but significant decrease of viability”. In data set [2], the “chemotaxis of endothelial cells (in words)” value (shortened to “chemotaxis”) was “decrease” and the inhibition at 10 µM came to 50%. In data set [3], the “reduction of formation of lamellipodia” value was found to be 54% and the “recruitment of Rac1 to lamellipodia (in words)” value (“recruitment of Rac1” below) was “inhibit recruitment of Rac1 to lamellipodia”.
For the molecule `CC(C)c1n[nH]c2c(NCc3ccccc3)nc(NC3CCCCC3N)nc12` (stereo not shown) [LGR 1406, 5-[(2-E/Z-aminocyclohexyl)amino]-7-benzylamino-3-isopropyl-1(2)H-pyrazolo[4,3-d]pyrimidine], the “cell viability in comparison to control” value in data set [1] is listed as “weak but significant decrease of viability”. In addition, in data set [2], the “chemotaxis” value is “decrease” and the inhibition at 10 µM is 70%. Besides, in data set [3], the “reduction of formation of lamellipodia” value was 67% and the “recruitment of Rac1” value is reported as “inhibit recruitment of Rac1 to lamellipodia”. For the same molecule, the 50% inhibitory concentration (IC50) in data set [4] came out at 3.2 µM. The molecule further showed an IC50 in data set [5] of 1 µM.
Regarding `CC(C)c1n[nH]c2c(NCc3ccccc3)nc(NC3CCC(N)CC3)nc12` (stereo not shown) [LGR 1407, 5-[(4-E-aminocyclohexyl)amino]-7-benzylamino-3-isopropyl-1(2)H-pyrazolo[4,3-d]pyrimidine], the “cell viability in comparison to control” value in data set [1] is “weak but significant decrease of viability”. Further, in data set [2], the “chemotaxis” value is given as “decrease” and the inhibition at 10 µM came to 60%. In data set [3], the “reduction of formation of lamellipodia” value turned out to be 67% and the “recruitment of Rac1” value was “inhibit recruitment of Rac1 to lamellipodia”. In data set [4], this molecule displayed a half-maximal inhibitory concentration (IC50) of 5.8 µM. The same molecule gave a half-inhibitory concentration (IC50) in data set [5] of 1.9 µM.
